The subject of series [1] is luciferase-reporter HIV-1 NL4-3 pseudotyped with HxBc2 envelope produced in 293T cells. The series is described as follows: microbe, parasite or virus in culture.
In the next series the test system is HIV-1 Ba-L. The series is described as follows: Antiviral activity of additional compounds (Tables 6 and 7). It is filed as cell-based. As to conditions: for IC50 / IC90: Human immunodeficiency virus 1, BAL. As to the method: (§1) HIV human peripheral blood mononuclear cell (PBMC) assays were performed as described previously (Lanier et al., 2010, Antimicrob Agents Chemother 54:2901-2909 and Ptak et al., 2008, Antimicrob Agents Chemother 52:1302-1317). Briefly, fresh PBMCs, seronegative for HIV and hepatitis B virus (HBV), were isolated from blood samples of the screened donors (Biological Specialty Corporation, Colmar, Pa.) by using lymphocyte separation medium (LSM; density, 1.078±0.002 g/ml; Cellgro; Mediatech, Inc.) by following the manufacturer's instructions. Cells were stimulated by incubation in 4 μg/mL phytohemagglutinin (PHA; Sigma) for 48 to 72 h. Mitogenic stimulation was maintained by the addition of 20 U/mL recombinant human interleukin-2 (rhIL-2; R&D Systems, Inc.) to the culture medium. PHA-stimulated PBMCs from at least two donors were pooled, diluted in fresh medium, and added to 96-well plates at 5×10^4 cells/well. Cells were infected (final multiplicity of infection [MOI] of ≅0.1) in the presence of nine different concentrations of test compounds (triplicate wells/concentration) and incubated for 7 days. To determine the level of virus inhibition, cell-free supernatant samples were collected for analysis of reverse transcriptase activity (Buckheit et al., 1991, AIDS Res Hum Retroviruses 7:295-302). Following removal of supernatant samples, compound cytotoxicity was measured by the addition of 3-(4,5-dimethylthiazol-2-yl)-5-(3-carboxymethoxy-phenyl)-2-(4-sulfophenyl)-2H-tetrazolium (MTS; CellTiter 96 reagent; Promega) by following the manufacturer's instructions.

Another series concerns HIV-1 NL4-3. Described as above. It is filed as cell-based. The settings on record: for IC50 / IC90: Human immunodeficiency virus 1, NL43. As to the method: as §1
A short description of series [2]: Compound cytotoxicity in PBMCs (MTS). The settings on record: human, read-out: TC50. It is filed as cell-based, human. The method, then:
as §1

In the next series the test system is HIV-1 93IN101. In words: Anti-HIV efficacy in human PBMCs, reverse transcriptase activity. It is filed as cell-based. The settings on record: HIV-1 93IN101, PBMCs. As to the method:
as §1

In another series the test system is HIV-1 92BR030. Described as above. The settings on record: HIV-1 92BR030, PBMCs. It is filed as cell-based. As to the method:
as §1

In the next series the test system is SIV MAC251. The series is described as follows: Antiviral efficacy in PBMCs, reverse transcriptase activity. It is filed as cell-based.
Where [3] appears, read: Human immunodeficiency virus 1, PBMC.
The mark [4] stands for this setting: Simian immunodeficiency virus, PBMC.

Molecules are shown by their SMILES. Read-outs that look alike come from different tables or passages of the source. Where only a bound is given, the exact number is not on record here.

The IC50 is the concentration that inhibits the measured activity by half. Lower therefore signals greater potency. Regarding `COc1c(Cl)cc(C(=O)N2CCN(Cc3nc(-c4ccc(C)cc4)no3)CC2)cc1Cl` [CMPD-3, (3,5-dichloro-4-methoxyphenyl)(4-((3-(p-tolyl)-1,2,4-oxadiazol-5-yl)methyl)piperazin-1-yl)methanone], the IC50 in series [1] is over 100 µM.
One may read the IC90 as the point of the concentration-response curve where the effect stands at 90%. For the molecule `O=C(CNC(=O)COc1ccccc1)NCc1ccc(Cl)cc1` [CMPD-35, N-(4-chlorobenzyl)-2-(2-phenoxyacetamido)acetamide], in the series on HIV-1 Ba-L, the IC50 is over 100 µM and the IC90 is over 100 µM. Besides, in the series with HIV-1 NL4-3, the concentration for half-maximal inhibition (IC50) was over 100 µM and the IC90 was over 100 µM. In addition, the CC50 at 7 days in series [2] (Tables 6 and 7 study) is over 100 µM.
In the series with HIV-1 Ba-L, `COc1ccc(CNC(=O)CNC(=O)COc2ccccc2)cc1` [CMPD-36, N-(4-methoxybenzyl)-2-(2-phenoxyacetamido)acetamide] registered an IC50 of over 100 µM and an IC90 of over 100 µM. Besides, in the series on HIV-1 NL4-3, the IC50 was over 100 µM and the IC90 was over 100 µM. The CC50 at 7 days in series [2] (Tables 6 and 7 study) is over 100 µM.
In the series with HIV-1 Ba-L, `O=C(CNC(=O)COc1ccccc1)NCc1ccc(C(F)(F)F)cc1` [CMPD-37, N-(2-oxo-2-((4-(trifluoromethyl)benzyl)amino)ethyl)-2-phenoxyacetamide] came in with an IC50 of over 100 µM and an IC90 of over 100 µM. In the series with HIV-1 NL4-3, this molecule registered an IC50 of over 100 µM and an IC90 of over 100 µM. The CC50 at 7 days in series [2] (Tables 6 and 7 study) was over 100 µM.
Consider `O=C(CNC(=O)COc1ccccc1)NCc1ccccc1` [CMPD-38, N-benzyl-2-(2-phenoxyacetamido)acetamide], for which, in the series with HIV-1 Ba-L, the half-inhibitory concentration (IC50) is over 100 µM and the IC90 was over 100 µM. Further, in the series on HIV-1 NL4-3, the half-inhibitory concentration (IC50) was over 100 µM and the concentration for an effect of 90% (IC90) was over 100 µM. The CC50 at 7 days in series [2] (Tables 6 and 7 study) is over 100 µM.
In the series with HIV-1 Ba-L, `O=C(CNC(=O)COc1ccccc1)NCc1cccc(Cl)c1` [CMPD-39, N-(3-chlorobenzyl)-2-(2-phenoxyacetamido)acetamide] gave an IC50 of over 100 µM and an IC90 of over 100 µM. In the series with HIV-1 NL4-3, this molecule yielded an IC50 of over 100 µM and an IC90 of over 100 µM. For the same molecule, the CC50 at 7 days in series [2] (Tables 6 and 7 study) is over 100 µM.
As for `CN1CCN(C(=O)c2ccc(CNC(=O)CNC(=O)COc3ccccc3)cc2)CC1` [CMPD-40, N-(4-(4-methylpiperazine-1-carbonyl)benzyl)-2-(2-phenoxyacetamido)acetamide], in the series with HIV-1 Ba-L, the IC50 is over 100 µM and the IC90 is over 100 µM. In the series on HIV-1 NL4-3, this molecule returned an IC50 of over 100 µM and an IC90 of over 100 µM. Also, the CC50 at 7 days in series [2] (Tables 6 and 7 study) is over 100 µM.
In the series with HIV-1 Ba-L, `CC(=O)NCC(=O)NCc1ccc(C(=O)N2CCN(C)CC2)cc1` [CMPD-41, 2-acetamido-N-(4-(4-methylpiperazine-1-carbonyl)benzyl)acetamide] yielded an IC50 of over 100 µM and an IC90 of over 100 µM. Moreover, in the series on HIV-1 NL4-3, the IC50 was over 100 µM and the IC90 was over 100 µM. For the same molecule, the CC50 at 7 days in series [2] (Tables 6 and 7 study) was over 100 µM.
In the case of `CN1CCN(C(=O)c2ccc(CNC(=O)CNC(=O)COc3ccc(Cl)cc3)cc2)CC1` [CMPD-42, 2-(4-chlorophenoxy)-N-(2-((4-(4-methylpiperazine-1-carbonyl)benzyl)amino)-2-oxoethyl)acetamide], in the series on HIV-1 Ba-L, the IC50 is over 100 µM and the IC90 is over 100 µM. Also, in the series on HIV-1 NL4-3, the 50% inhibitory concentration (IC50) is over 100 µM and the IC90 was over 100 µM. The CC50 at 7 days in series [2] (Tables 6 and 7 study) was over 100 µM.
In the series on HIV-1 Ba-L, `COc1ccc(OCC(=O)NCC(=O)NCc2ccc(C(=O)N3CCN(C)CC3)cc2)cc1` [CMPD-43, 2-(4-methoxyphenoxy)-N-(2-((4-(4-methylpiperazine-1-carbonyl)benzyl)amino)-2-oxoethyl)acetamide] displayed an IC50 of over 100 µM and an IC90 of over 100 µM. Besides, in the series on HIV-1 NL4-3, the IC50 was over 100 µM and the IC90 is over 100 µM. In series [2] (Tables 6 and 7 study), the CC50 at 7 days was over 100 µM.
Turning to `CN1CCN(C(=O)c2ccc(CNC(=O)CNC(=O)COc3ccc(C(F)(F)F)cc3)cc2)CC1` [CMPD-44, N-(4-(4-methylpiperazine-1-carbonyl)benzyl)-2-(2-(4-(trifluoromethyl)phenoxy)acetamido)acetamide], the IC50 in the series on HIV-1 Ba-L and with HIV-1 NL4-3 was over 100 µM throughout. Moreover, the IC90 in the series with HIV-1 Ba-L and with HIV-1 NL4-3 was over 100 µM in each case. Further, the CC50 at 7 days in series [2] (Tables 6 and 7 study) is over 100 µM.
Take `CC(=O)NCC(=O)NCc1ccc(C(=O)N2CCCCC2)cc1` [CMPD-45, 2-acetamido-N-(4-(piperidine-1-carbonyl)benzyl)acetamide]: in the series on HIV-1 Ba-L, the IC50 was over 100 µM and the IC90 was over 100 µM. Further, in the series on HIV-1 NL4-3, the IC50 was over 100 µM and the IC90 is over 100 µM. For the same molecule, the CC50 at 7 days in series [2] (Tables 6 and 7 study) was over 100 µM.
As for `O=C(CNC(=O)COc1ccc(Cl)cc1)NCc1ccc(C(=O)N2CCCCC2)cc1` [CMPD-46, 2-(4-chlorophenoxy)-N-(2-oxo-2-((4-(piperidine-1-carbonyl)benzyl)amino)ethyl)acetamide], in the series on HIV-1 Ba-L, the “Antiviral index (TC50/IC50)” value is reported as over 1.38, the IC50 is 72.6 µM and the IC90 was over 100 µM. Moreover, in the series on HIV-1 NL4-3, the “Antiviral index (TC50/IC50)” value is over 1.28, the IC50 is 78.1 µM and the IC90 is over 100 µM. Also, the CC50 at 7 days in series [2] (Tables 6 and 7 study) was over 100 µM.
`COc1ccc(OCC(=O)NCC(=O)NCc2ccc(C(=O)N3CCCCC3)cc2)cc1` [CMPD-47, 2-(4-methoxyphenoxy)-N-(2-oxo-2-((4-(piperidine-1-carbonyl)benzyl)amino)ethyl)acetamide]: in the series with HIV-1 Ba-L, the “Antiviral index (TC50/IC50)” value amounted to 1.44, the IC50 was determined as 50.8 µM and the concentration for an effect of 90% (IC90) was 96.1 µM. For the same molecule, in the series on HIV-1 NL4-3, the “Antiviral index (TC50/IC50)” value is given as 1.39, it took 52.7 µM to reach half-maximal inhibition (IC50) and the 90% effect level (IC90) was put at 92.7 µM. Further, the CC50 at 7 days in series [2] (Tables 6 and 7 study) worked out at 73.1 µM.
Turning to `O=C(CNC(=O)COc1ccc(C(F)(F)F)cc1)NCc1ccc(C(=O)N2CCCCC2)cc1` [CMPD-48, N-(2-oxo-2-((4-(piperidine-1-carbonyl)benzyl)amino)ethyl)-2-(4-(trifluoromethyl)phenoxy)acetamide], in the series with HIV-1 Ba-L, the “Antiviral index (TC50/IC50)” value is over 4.86, the IC50 is 20.6 µM and the IC90 was over 100 µM. In the series on HIV-1 NL4-3, the “Antiviral index (TC50/IC50)” value is over 4.45, it took 22.5 µM to reach half-maximal inhibition (IC50) and the IC90 was over 100 µM. The CC50 at 7 days in series [2] (Tables 6 and 7 study) was over 100 µM.
As for `COc1ccccc1-c1noc(=O)n1-c1cccc(C(F)(F)F)c1` [ITI-367, 3-(2-methoxyphenyl)-4-[3-trifluoromethyl-phenyl]-1,2,4-oxadiazol-5-one, reference compound], the “Antiviral index (TC50/IC50)” value in the series with HIV-1 93IN101 was over 2.39; in the series with HIV-1 92BR030 it was over 2.13; in the series with SIV MAC251, over 1.33. The IC50 in the series on HIV-1 93IN101 (setting [3]) was 41.9 µM; with HIV-1 92BR030 (setting [3]), 47 µM; in the series with SIV MAC251 (setting [4]), 74.9 µM. In addition, the IC90 in the series on HIV-1 93IN101 (setting [3]) was 96 µM; in the series on HIV-1 92BR030 (setting [3]), over 100 µM; in the series with SIV MAC251 (setting [4]), over 100 µM. Moreover, the CC50 at 7 days in series [2] (Table 4 study, PBMCs) was over 100 µM.

For the origin of these results see patent US20130109698A1, “Small Molecule Inhibitors of Functions of the HIV-1 Matrix Protein” (priority 2010, published 2013).
